This is an account of results in ChEMBL document CHEMBL5543142, “Discovery of YFJ-36: Design, Synthesis, and Antibacterial Activities of Catechol-Conjugated β-Lactams against Gram-Negative Bacteria” (J Med Chem, 2024).

Data set [1] in a line: MRT in ICR mouse at 20 mg/kg,iv administration measured upto 4 hrs by LC-MS/MS analysis. The data set is classed as ADME, organism-based. The settings on record: in vivo.
The nature of data set [2]: Half life in ICR mouse at 20 mg/kg,iv administration measured upto 4 hrs by LC-MS/MS analysis. The settings on record: in vivo. The data set is classed as ADME, organism-based.
Data set [3] can be described thus: Volume of distribution at steady state in ICR mouse at 20 mg/kg,iv administration measured upto 4 hrs by LC-MS/MS analysis. The data set is classed as ADME, organism-based. The settings on record: in vivo, read-out: Vdss.
A short description of data set [4]: Clearance in ICR mouse at 20 mg/kg,iv administration measured upto 4 hrs by LC-MS/MS analysis. Type of data set: ADME, organism-based. The settings on record: in vivo.
Data set [5] is described as follows: AUC (0 to infinity) in ICR mouse at 20 mg/kg,iv administration measured upto 4 hrs by LC-MS/MS analysis. The settings on record: in vivo. Type of data set: ADME, organism-based.
Data set [6] concerns Escherichia coli. Kind of data set: Antibacterial activity against ESBL-producing multidrug-resistant Escherichia coli clinical isolate 14-1 assessed as inhibition of bacterial growth incubated for 18 to 20 hrs by two fold serial dilution assay. The data set is classed as functional. The settings on record: time 18-20 hrs.
Data set [7] concerns Acinetobacter baumannii. Kind of data set: Antibacterial activity against OXA-23 producing multidrug-resistant Acinetobacter baumannii clinical isolate 17-2 assessed as inhibition of bacterial growth incubated for 18 to 20 hrs by two fold serial dilution assay. Type of data set: functional. The settings on record: time 18-20 hrs.
Data set [8] has as its system Escherichia coli. The experiment in a line: Antibacterial activity against ESBL-producing multidrug-resistant Escherichia coli clinical isolate 14-4 assessed as inhibition of bacterial growth incubated for 18 to 20 hrs by two fold serial dilution assay. The data set is classed as functional. The settings on record: time 18-20 hrs.
The subject of data set [9] is Acinetobacter baumannii. Kind of data set: Antibacterial activity against OXA-23 producing multidrug-resistant Acinetobacter baumannii clinical isolate 17-8 assessed as inhibition of bacterial growth incubated for 18 to 20 hrs by two fold serial dilution assay. Type of data set: functional. The settings on record: time 18-20 hrs.
Data set [10] relates to Escherichia coli. Kind of data set: Antibacterial activity against Escherichia coli ATCC-35218 infected in ICR mouse assessed as inhibition of bacterial growth at iv after 1 and 5 hour of post-infection measured after 7 days. Type of data set: functional. The settings on record: ATCC-35218, 168 h, time 7 day.
Data set [11] has as its system Acinetobacter baumannii. Kind of data set: Antibacterial activity against multidrug-resistant Acinetobacter baumannii BM-2023-D2-010 infected in ICR mouse assessed as inhibition of bacterial growth at iv after 1 and 5 hour of post-infection measured after 7 days. The data set is classed as functional. The settings on record: BM-2023-D2-010, 168 h, time 7 day.
In data set [12] the test system is Acinetobacter baumannii. Kind of data set: Antibacterial activity against multidrug-resistant Acinetobacter baumannii BM-2023-D2-010 infected in ICR mouse assessed as survival rate at 40 mg/kg,iv after 1 and 5 hour of post-infection measured after 7 days relative to control. Type of data set: functional. The settings on record: time 7 day.
The subject of data set [13] is Acinetobacter baumannii. The experiment in a line: Antibacterial activity against OXA-23 producing multidrug-resistant Acinetobacter baumannii clinical isolate 17-5 assessed as inhibition of bacterial growth incubated for 18 to 20 hrs by two fold serial dilution assay. The settings on record: time 18-20 hrs. Type of data set: functional.
Data set [14] concerns Klebsiella pneumoniae. The experiment in a line: Antibacterial activity against KPC-2 producing multidrug-resistant Klebsiella pneumoniae clinical isolate 15-2 assessed as inhibition of bacterial growth incubated for 18 to 20 hrs by two fold serial dilution assay. Type of data set: functional. The settings on record: time 18-20 hrs.
The test system of data set [15] is Acinetobacter baumannii. The experiment in a line: Antibacterial activity against OXA-23 producing multidrug-resistant Acinetobacter baumannii clinical isolate 17-7 assessed as inhibition of bacterial growth incubated for 18 to 20 hrs by two fold serial dilution assay. The data set is classed as functional. The settings on record: time 18-20 hrs.
Data set [16] relates to Pseudomonas aeruginosa. The experiment in a line: Antibacterial activity against IMP-4 producing multidrug-resistant Pseudomonas aeruginosa clinical isolate 19-1 assessed as inhibition of bacterial growth incubated for 18 to 20 hrs by two fold serial dilution assay. Type of data set: functional. The settings on record: time 18-20 hrs.
Data set [17] deals with Klebsiella pneumoniae. The experiment in a line: Antibacterial activity against KPC-2 producing multidrug-resistant Klebsiella pneumoniae clinical isolate 15-3 assessed as inhibition of bacterial growth incubated for 18 to 20 hrs by two fold serial dilution assay. Type of data set: functional. The settings on record: time 18-20 hrs.
For data set [18], the system named is Pseudomonas aeruginosa. The experiment in a line: Antibacterial activity against IMP-4 producing multidrug-resistant Pseudomonas aeruginosa clinical isolate 19-17 assessed as inhibition of bacterial growth incubated for 18 to 20 hrs by two fold serial dilution assay. Type of data set: functional. The settings on record: time 18-20 hrs.
For data set [19], the system named is Escherichia coli. The experiment in a line: Antibacterial activity against Escherichia coli NCTC-13353 assessed as inhibition of bacterial growth incubated for 18 to 20 hrs in presence of CAMHB medium by two fold serial dilution assay. The data set is classed as functional. The settings on record: time 18-20 hrs.
Data set [20] concerns Acinetobacter baumannii. The experiment in a line: Antibacterial activity against OXA-23 producing multidrug-resistant Acinetobacter baumannii clinical isolate 15-4 assessed as inhibition of bacterial growth incubated for 18 to 20 hrs by two fold serial dilution assay. Type of data set: functional. The settings on record: time 18-20 hrs.
Data set [21] concerns Klebsiella pneumoniae. Kind of data set: Antibacterial activity against KPC-2 producing multidrug-resistant Klebsiella pneumoniae clinical isolate 15-1 assessed as inhibition of bacterial growth incubated for 18 to 20 hrs by two fold serial dilution assay. The data set is classed as functional. The settings on record: time 18-20 hrs.
Data set [22] has as its system Klebsiella pneumoniae. The experiment in a line: Antibacterial activity against KPC-2 producing multidrug-resistant Klebsiella pneumoniae clinical isolate 15-5 assessed as inhibition of bacterial growth incubated for 18 to 20 hrs by two fold serial dilution assay. The settings on record: time 18-20 hrs. Type of data set: functional.
The subject of data set [23] is Pseudomonas aeruginosa. Kind of data set: Antibacterial activity against IMP-4 producing multidrug-resistant Pseudomonas aeruginosa clinical isolate 17-13 assessed as inhibition of bacterial growth incubated for 18 to 20 hrs by two fold serial dilution assay. The settings on record: time 18-20 hrs. Type of data set: functional.
Data set [24] deals with Escherichia coli. Kind of data set: Antibacterial activity against ESBL-producing multidrug-resistant Escherichia coli clinical isolate 14-2 assessed as inhibition of bacterial growth incubated for 18 to 20 hrs by two fold serial dilution assay. The data set is classed as functional. The settings on record: time 18-20 hrs.
Data set [25] has as its system Acinetobacter baumannii. Kind of data set: Antibacterial activity against OXA-23 producing multidrug-resistant Acinetobacter baumannii clinical isolate 15-5 assessed as inhibition of bacterial growth incubated for 18 to 20 hrs by two fold serial dilution assay. Type of data set: functional. The settings on record: time 18-20 hrs.
Data set [26] deals with Acinetobacter baumannii. The experiment in a line: Antibacterial activity against OXA-23 producing multidrug-resistant Acinetobacter baumannii clinical isolate 17-6 assessed as inhibition of bacterial growth incubated for 18 to 20 hrs by two fold serial dilution assay. The settings on record: time 18-20 hrs. The data set is classed as functional.
Data set [27] has as its system Escherichia coli. Kind of data set: Antibacterial activity against Escherichia coli ATCC35218 assessed as inhibition of bacterial growth incubated for 18 to 20 hrs by two fold serial dilution assay. The data set is classed as functional. The settings on record: time 18-20 hrs.
In data set [28] the test system is Pseudomonas aeruginosa. Kind of data set: Antibacterial activity against IMP-4 producing multidrug-resistant Pseudomonas aeruginosa clinical isolate 17-1 assessed as inhibition of bacterial growth incubated for 18 to 20 hrs by two fold serial dilution assay. The data set is classed as functional. The settings on record: time 18-20 hrs.
For data set [29], the system named is Pseudomonas aeruginosa. Kind of data set: Antibacterial activity against IMP-4 producing multidrug-resistant Pseudomonas aeruginosa clinical isolate 15-1 assessed as inhibition of bacterial growth incubated for 18 to 20 hrs by two fold serial dilution assay. The data set is classed as functional. The settings on record: time 18-20 hrs.
Data set [30] concerns Pseudomonas aeruginosa. The experiment in a line: Antibacterial activity against IMP-4 producing multidrug-resistant Pseudomonas aeruginosa clinical isolate 15-5 assessed as inhibition of bacterial growth incubated for 18 to 20 hrs by two fold serial dilution assay. Type of data set: functional. The settings on record: time 18-20 hrs.
Data set [31] concerns Pseudomonas aeruginosa. Kind of data set: Antibacterial activity against IMP-4 producing multidrug-resistant Pseudomonas aeruginosa clinical isolate 19-5 assessed as inhibition of bacterial growth incubated for 18 to 20 hrs by two fold serial dilution assay. The settings on record: time 18-20 hrs. Type of data set: functional.
For data set [32], the system named is Pseudomonas aeruginosa. The experiment in a line: Antibacterial activity against Pseudomonas aeruginosa ATCC 27853 assessed as inhibition of bacterial growth incubated for 18 to 20 hrs by two fold serial dilution assay. The data set is classed as functional. The settings on record: time 18-20 hrs.
Data set [33] has as its system Acinetobacter baumannii. The experiment in a line: Antibacterial activity against OXA-23 producing multidrug-resistant Acinetobacter baumannii clinical isolate 15-3 assessed as inhibition of bacterial growth incubated for 18 to 20 hrs by two fold serial dilution assay. Type of data set: functional. The settings on record: time 18-20 hrs.

Each structure is given as a SMILES string. Values after ≈ are worked out from the molar mass of the structure shown.

The MRT is the average time that molecules of a dose stay in the body. The term half-life denotes how long it takes for the measured level to halve. A high value points to slow loss. The clearance is the rate of elimination divided by the concentration. Low values mean inefficient removal, high ones efficient removal. One may read the AUC(0-inf) as total exposure, with the tail of the curve extrapolated. A high value points to more exposure. Turning to `Cc1ccc(S(=O)(=O)O)cc1.Nc1nc(/C(=N/O[C@@H](C(=O)O)C2CCC(F)(F)CC2)C(=O)N[C@@H]2C(=O)N3C(C(=O)O)=C(CSCCNC(=O)c4ccc(O)c(O)c4Cl)CS[C@H]23)cs1`, the MRT in data set [1] is 9 min. The compound further gave a half-life in [2] of 19.8 min. For the same compound, in [3], the Vd was 1.44 L/kg. The compound further gave a clearance in data set [4] of 160 mL/min/kg. Besides, the total exposure AUC(0-inf) in data set [5] was 2160 ng·h/mL.

By MIC is commonly meant the smallest concentration in the dilution series that meets the test's criterion for growth inhibition. As for `C[C@@H](O)[C@H]1C(=O)N2C(C(=O)O)=C(S[C@@H]3CN[C@H](C(=O)N(C)C)C3)[C@H](C)[C@H]12` [MEROPENEM], the MIC in data set [6] was 0.125 µg/mL (≈ 0.326 µM); in [7], above 64 µg/mL; in data set [8], 4 µg/mL (≈ 10.4 µM); in [9], above 64 µg/mL; in data set [10], at most 0.03 µg/mL; in [11], above 64 µg/mL. Moreover, the MIC was above 64 µg/mL in [13]; above 64 µg/mL in [14]; above 64 µg/mL in [15]; 0.5 µg/mL (≈ 1.3 µM) in data set [16]; above 64 µg/mL in data set [17]; 32 µg/mL (≈ 83.4 µM) in data set [18]. Besides, the minimal inhibitory concentration (MIC) in data set [19] is 32 µg/mL; in data set [20], 32 µg/mL (≈ 83.4 µM); in [21], above 64 µg/mL; in [22], above 64 µg/mL; in [23] it was 16 µg/mL (≈ 41.7 µM); in data set [24], 2 µg/mL (≈ 5.22 µM). For the same compound, the MIC in [25] was 32 µg/mL (≈ 83.4 µM); in data set [26], above 64 µg/mL; in [27] it was 0.06 µg/mL (≈ 0.156 µM); in [28] it was 4 µg/mL (≈ 10.4 µM); in [29], 32 µg/mL (≈ 83.4 µM); in data set [30], 16 µg/mL (≈ 41.7 µM). Besides, the minimal inhibitory concentration (MIC) came to 16 µg/mL (≈ 41.7 µM) in data set [31], 1 µg/mL (≈ 2.61 µM) in data set [32] and 32 µg/mL (≈ 83.4 µM) in [33]. Further, in data set [12], the Activity is reported as 0%.
